Reference: patent US11045457B2, “Piperidinyl-3-(aryloxy)propanamides and propanoates” (priority 2018, dated 2021)

target: SSTR4 (Homo sapiens (Human), UniProt P31391); experiment: Inhibition of forskolin stimulated cAMP in CHO-K1 cells overexpressing SSTR4; assay type: cell-based; conditions: not given
Description: Inhibition of Forskolin Stimulated cAMP in Cells Overexpressing SSTR4
This cell-based assay measures the ability of compounds to inhibit forskolin stimulated cAMP in CHO-K1 cells overexpressing SSTR4. CHO-K1 cells overexpressing SSTR4 (CHO-SSTR4) are purchased from DiscoveRx (product code 95-0059C2). The CHO-SSTR4 cells are maintained in F12K media with 10% Fetal Bovine Serum (Hyclone), 1% Pen/Strep (Life Technologies), and 800 μg/mL G418 (Life Technologies). […] The next day, the culture media is removed from the cells and the cells are washed (added then removed) with Kreb's Ringer Buffer (ZenBio, KRB-1000 mL). […] The cells are incubated in […] for 30 minutes at room temperature. Cellular cAMP levels are detected with a HTRF LANCE Ultra cAMP kit (Perkin Elmer, catalog number TRF0264).
The assay is performed in accordance with the manufacturer's instructions. Five μL of diluted Eu-W8044 labeled streptavidin (dilution: 1:50 in cAMP Detection Buffer) is added to each well. Then 5 μL of diluted biotin cAMP (dilution: 1:150 in cAMP Detection Buffer) is added to each well. The plates are covered and allowed to incubate for 60 minutes at room temperature on a shaker. […] The pEC50 values are generated using Activity Base for Screening Data Management.

SSTR4, sequence (P31391 whole entry): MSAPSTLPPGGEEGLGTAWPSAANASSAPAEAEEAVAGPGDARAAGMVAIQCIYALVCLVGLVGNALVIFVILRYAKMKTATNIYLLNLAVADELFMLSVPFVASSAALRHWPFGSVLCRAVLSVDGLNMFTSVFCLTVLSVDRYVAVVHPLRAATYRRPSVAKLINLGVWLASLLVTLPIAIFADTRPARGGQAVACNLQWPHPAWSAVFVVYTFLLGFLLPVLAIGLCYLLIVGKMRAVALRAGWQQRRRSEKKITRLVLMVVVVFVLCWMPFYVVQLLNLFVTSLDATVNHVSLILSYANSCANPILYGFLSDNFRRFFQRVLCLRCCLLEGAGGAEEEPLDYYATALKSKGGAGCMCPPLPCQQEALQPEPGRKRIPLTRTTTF

SMILES | SSTR4 Activity pEC50
Cc1cnccc1OCC(C)(C)C(=O)NC1CCN(C)CC1 [Example 50, 2,2-dimethyl-N-(1-methylpiperidin-4-yl)-3-((3-methylpyridin-4-yl)oxy)propanamide] | 6.2
Cc1cnc(OCC(C)(C)C(=O)N[C@H]2CN(C)CC23CC3)c(C)c1 [Example 154, (R)-3-((3,5-dimethylpyridin-2-yl)oxy)-2,2-dimethyl-N-(5-methyl-5-azaspiro[2.4]heptan-7-yl)propanamide] | 7.4
C[C@@H]1CN(C)CC[C@H]1NC(=O)C(C)(C)COc1ncccc1C(F)(F)F (single isomer, unassigned) [Example 106] | 6.0
CCC1CC(NC(=O)C(C)(C)COc2ncccc2C(F)(F)F)CCN1C (centres unmarked) [Example 137, N-(2-ethyl-1-methylpiperidin-4-yl)-2,2-dimethyl-3-((3-(trifluoromethyl)pyridin-2-yl)oxy)propanamide] | 6.7
Cc1cnc(OCC(C)(C)C(=O)N[C@@H]2CCN(C)C[C@H]2C)c(C)c1 (single isomer, unassigned) [Example 140] | 6.2
CN1CCC(NC(=O)C2(COc3ccccc3Cl)CC2)CC1 [Example 81, 1-((2-chlorophenoxy)methyl)-N-(1-methylpiperidin-4-yl)cyclopropane-1-carboxamide] | 6.3
CN1CC(NC(=O)C(C)(C)COc2ncccc2C(F)(F)F)CC1(C)C (centres unmarked) [Example 35, 2,2-dimethyl-3-((3-(trifluoromethyl)pyridin-2-yl)oxy)-N-(1,5,5-trimethylpyrrolidin-3-yl)propanamide] | 6.5
CN1CCC(NC(=O)C(C)(C)COc2ncncc2C2CC2)CC1 [Example 5, 3-((5-cyclopropylpyrimidin-4-yl)oxy)-2,2-dimethyl-N-(1-methylpiperidin-4-yl)propanamide] | 6.8
C[C@@H]1C[C@@H](NC(=O)C(C)(C)COc2ncccc2C(F)(F)F)CCN1C [Example 177, N-((2R,4S)-1,2-dimethylpiperidin-4-yl)-2,2-dimethyl-3-((3-(trifluoromethyl)pyridin-2-yl)oxy)propanamide] | 6.9
CN1CCC(NC(=O)C(C)(C)COc2nccnc2C2CC2)CC1 [Example 80, 3-((3-cyclopropylpyrazin-2-yl)oxy)-2,2-dimethyl-N-(1-methylpiperidin-4-yl)propanamide] | 6.1
CN1C[C@@H](NC(=O)C(C)(C)COc2ncccc2C(F)(F)F)C2(CC2)C1 [Example 173, (S)-2,2-dimethyl-N-(5-methyl-5-azaspiro[2.4]heptan-7-yl)-3-((3-(trifluoromethyl)pyridin-2-yl)oxy)propanamide] | 6.3

Next, values leading:

SSTR4 Activity pEC50 | SMILES
5.8 | CN1CCC(NC(=O)C(C)(C)COc2ncccc2C#N)CC1 [Example 3, 3-((3-cyanopyridin-2-yl)oxy)-2,2-dimethyl-N-(1-methylpiperidin-4-yl)propanamide]
7.1 | CN1CCC(NC(=O)C(C)(C)COc2nccc3occc23)CC1 [Example 99, 3-(furo[3,2-c]pyridin-4-yloxy)-2,2-dimethyl-N-(1-methylpiperidin-4-yl)propanamide]
7.2 | CN1CCC(NC(=O)C(C)(C)COc2ncc(Br)cc2C(F)(F)F)CC1 [Example 100, 3-((5-bromo-3-(trifluoromethyl)pyridin-2-yl)oxy)-2,2-dimethyl-N-(1-methylpiperidin-4-yl)propanamide]
7.0 | CCOc1cccnc1OCC(C)(C)C(=O)NC1CCN(C)CC1 [Example 54, 3-((3-ethoxypyridin-2-yl)oxy)-2,2-dimethyl-N-(1-methylpiperidin-4-yl)propanamide]
6.6 | CN1CCC(NC(=O)C(C)(C)COc2ncccc2C(F)F)CC1 [Example 90, 3-((3-(difluoromethyl)pyridin-2-yl)oxy)-2,2-dimethyl-N-(1-methylpiperidin-4-yl)propanamide]
5.9 | CN1CCC(NC(=O)C(C)(C)COc2nccc(Cl)c2F)CC1 [Example 44, 3-((4-chloro-3-fluoropyridin-2-yl)oxy)-2,2-dimethyl-N-(1-methylpiperidin-4-yl)propanamide]
7.0 | CN1CCC(NC(=O)C(C)(C)COc2ncccc2Cl)CC1 [Example 38, 3-((3-chloropyridin-2-yl)oxy)-2,2-dimethyl-N-(1-methylpiperidin-4-yl)propanamide]
5.5 | Cc1c(C#N)cccc1OCC(C)(C)C(=O)NC1CCN(C)CC1 [Example 75, 3-(3-cyano-2-methylphenoxy)-2,2-dimethyl-N-(1-methylpiperidin-4-yl)propanamide]
6.4 | CN1CCC(NC(=O)C(C)(C)COc2ccccc2)CC1 [Example 74, 2,2-dimethyl-N-(1-methylpiperidin-4-yl)-3-phenoxypropanamide]
6.1 | CN1CCC(NC(=O)C(C)(C)COc2ncc(F)cc2F)CC1 [Example 40, 3-((3,5-difluoropyridin-2-yl)oxy)-2,2-dimethyl-N-(1-methylpiperidin-4-yl)propanamide]
7.3 | Cc1cnc(OCC(C)(C)C(=O)NC2CCN(C)CC2)c(C(F)(F)F)c1 [Example 101, 2,2-dimethyl-3-((5-methyl-3-(trifluoromethyl)pyridin-2-yl)oxy)-N-(1-methylpiperidin-4-yl)propanamide]
7.0 | CN1CCC(NC(=O)C(C)(C)COc2ccc(C#N)cc2C(F)(F)F)CC1 [Example 73, 3-(4-cyano-2-(trifluoromethyl)phenoxy)-2,2-dimethyl-N-(1-methylpiperidin-4-yl)propanamide]
6.2 | CN1CCC(NC(=O)C(C)(C)COc2nnc(Cl)cc2C(F)(F)F)CC1 [Example 98, 3-((6-chloro-4-(trifluoromethyl)pyridazin-3-yl)oxy)-2,2-dimethyl-N-(1-methylpiperidin-4-yl)propanamide]
5.4 | Cc1nc(Cl)ccc1OCC(C)(C)C(=O)NC1CCN(C)CC1 [Example 46, 3-((6-chloro-2-methylpyridin-3-yl)oxy)-2,2-dimethyl-N-(1-methylpiperidin-4-yl)propanamide]
7.1 | CCc1cccnc1OCC(C)(C)C(=O)NC1CCN(C)CC1 [Example 85, 3-((3-ethylpyridin-2-yl)oxy)-2,2-dimethyl-N-(1-methylpiperidin-4-yl)propanamide]

same assay, conditions: read-out: SSTR4 Activity pEC50 (converted)

EC50 | SMILES
63.1 nM | Cc1cccnc1OCC(C)(C)C(=O)N[C@@H]1CN(C)C[C@H]1c1ccc(C(F)(F)F)nc1 (relative stereo) [Example 57, trans-2,2-dimethyl-N-(1-methyl-4-(6-(trifluoromethyl)pyridin-3-yl)pyrrolidin-3-yl)-3-((3-methylpyridin-2-yl)oxy)propanamide]
2000 nM | C[C@@H]1C[C@H](NC(=O)C(C)(C)COc2ncccc2C(F)(F)F)CN1C (relative stereo) [Example 134, cis-N-(1,5-dimethylpyrrolidin-3-yl)-2,2-dimethyl-3-((3-(trifluoromethyl)pyridin-2-yl)oxy)propanamide]
316 nM | CC(C)(COc1ncccc1C(F)(F)F)C(=O)O[C@@H]1CCNC[C@H]1c1ccccc1 (relative stereo) [Example 171, trans-3-phenylpiperidin-4-yl 2,2-dimethyl-3-((3-(trifluoromethyl)pyridin-2-yl)oxy)propanoate]
158 nM | CN1CCC(NC(=O)C(C)(C)COc2ncccc2C(F)(F)F)C12CCC2 (centres unmarked) [Example 151, 2,2-dimethyl-N-(5-methyl-5-azaspiro[3.4]octan-8-yl)-3-((3-(trifluoromethyl)pyridin-2-yl)oxy)propanamide]
79.4 nM | C[C@@H]1CN(C)CC[C@@H]1NC(=O)C(C)(C)COc1ncccc1OC(F)(F)F (racemic) [Example 14, cis-N-(1,3-dimethylpiperidin-4-yl)-2,2-dimethyl-3-((3-(trifluoromethoxy)pyridin-2-yl)oxy)propanamide]
631 nM | Cc1ccc([C@@H]2CN(CC#N)C[C@H]2NC(=O)C(C)(C)COc2ncccc2C(F)(F)F)cn1 (relative stereo) [Example 103, trans-N-(1-(cyanomethyl)-4-(6-methylpyridin-3-yl)pyrrolidin-3-yl)-2,2-dimethyl-3-((3-(trifluoromethyl)pyridin-2-yl)oxy)propanamide]
25.1 nM | CN1C[C@@H](NC(=O)C(C)(C)COc2ncccc2C(F)(F)F)[C@H](c2ccc(Cl)cc2)C1 (relative stereo) [Example 56, trans-N-(4-(4-chlorophenyl)-1-methylpyrrolidin-3-yl)-2,2-dimethyl-3-((3-(trifluoromethyl)pyridin-2-yl)oxy)propanamide]
25.1 nM | C[C@@H]1CN(C)CC[C@@H]1NC(=O)C(C)(C)COc1ncccc1C1CC1 (racemic) [Example 21, cis-3-((3-cyclopropylpyridin-2-yl)oxy)-N-(1,3-dimethylpiperidin-4-yl)-2,2-dimethylpropanamide]
63.1 nM | Cc1ccc([C@@H]2CN(C)C[C@H]2NC(=O)C(C)(C)COc2ncccc2C2CC2)cn1 (relative stereo) [Example 61, trans-3-((3-cyclopropylpyridin-2-yl)oxy)-2,2-dimethyl-N-(1-methyl-4-(6-methylpyridin-3-yl)pyrrolidin-3-yl)propanamide]
